Assay results reported in the supplement of paper PMC10307832.

Key:
Test in all cases: relative viability (nuclei count vs DMSO), 5 days (fraction); higher = more cells survive
[1] = compound: Cn1nnc2c(C(N)=O)ncn2c1=O [Temozolomide] + CC(=O)c1c(C)c2cnc(Nc3ccc(N4CCNCC4)cn3)nc2n(C2CCCC2)c1=O [Palbociclib] (partner 0.5 µM)
How it was run: (§1)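 Lung cancer cell lines in 1536-well plates were dosed by pin tool the day after seeding, either with one drug alone or with a fixed anchor-drug dose plus five library-drug doses (not always all listed) in √10 steps. After 5 days, cells were fixed and their nuclei stained in one step (final 0.05% Triton X-100, 1% formaldehyde, 1 ug/ml Hoechst), then counted on 4× images. Relative viability is the nuclei count in treated wells divided by that in vehicle wells. Values are medians of duplicate plates.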

[2] = compound: Cn1nnc2c(C(N)=O)ncn2c1=O [Temozolomide] + CC(C)C[C@H](NC(=O)[C@H](Cc1ccccc1)NC(=O)c1cnccn1)B(O)O [Bortezomib] (partner 0.002 µM)
How it was run: as §1

Temozolomide + AZD7762 = compound: Cn1nnc2c(C(N)=O)ncn2c1=O [Temozolomide] + NC(=O)Nc1cc(-c2cccc(F)c2)sc1C(=O)N[C@H]1CCCNC1 [AZD7762] (partner 0.2 µM)
How it was run: as §1

AZD5582 + Alpelisib = compound: C[C@@H](C(=O)N[C@@H](C1CCCCC1)C(=O)N2CCC[C@H]2C(=O)N[C@@H]3[C@@H](CC4=CC=CC=C34)OCC#CC#CCO[C@@H]5CC6=CC=CC=C6[C@@H]5NC(=O)[C@@H]7CCCN7C(=O)[C@H](C8CCCCC8)NC(=O)[C@H](C)NC)NC [AZD5582] + Cc1nc(NC(=O)N2CCC[C@H]2C(N)=O)sc1-c1ccnc(C(C)(C)C(F)(F)F)c1 [Alpelisib] (partner 2 µM)
How it was run: as §1

Cell Line	relative viability ([1]; first compound 0.2 µM)	relative viability ([1]; first compound 0.6325 µM)	relative viability ([1]; first compound 2 µM)	relative viability ([1]; first compound 6.325 µM)	relative viability ([1]; first compound 20 µM)	relative viability ([2]; first compound 0.2 µM)	relative viability ([2]; first compound 0.6325 µM)	relative viability ([2]; first compound 2 µM)	relative viability ([2]; first compound 6.325 µM)	relative viability ([2]; first compound 20 µM)	relative viability (Temozolomide + AZD7762; first compound 0.2 µM)	relative viability (Temozolomide + AZD7762; first compound 0.6325 µM)	relative viability (Temozolomide + AZD7762; first compound 2 µM)	relative viability (Temozolomide + AZD7762; first compound 6.325 µM)	relative viability (Temozolomide + AZD7762; first compound 20 µM)	relative viability (AZD5582 + Alpelisib; first compound 0.001581 µM)	relative viability (AZD5582 + Alpelisib; first compound 0.005 µM)	relative viability (AZD5582 + Alpelisib; first compound 0.01581 µM)	relative viability (AZD5582 + Alpelisib; first compound 0.05 µM)
EMC-BAC-2	0.563	0.534	0.542	0.511	0.514	0.977	1.13	1.02	1.01	1.04	1.12	1.17	1.15	1.08	1.12	0.702	0.628	0.721	0.316
NCI-H1651	0.497	0.557	0.5	0.526	0.547	1.01	0.975	0.989	0.915	0.898	0.392	0.403	0.478	0.465	0.419	1.03	1.02	0.855	1.15
HCC-827	0.461	0.449	0.513	0.517	0.148	1.2	1.1	1.02	1.05	0.32	0.147	0.193	0.196	0.227	0.119	0.898	1.02	0.985	1.04
SW 1573	0.502	0.44	0.467	0.4	0.429	0.949	1.12	1.05	1.19	1.18						0.856	0.705	0.673	1.01
NCI-H460	0.159	0.175	0.152	0.267	0.183	1.29	1.11	1.02	1.24	1.14	0.694	0.643	0.694	0.611	0.619	0.401	0.445	0.536	0.621
NCI-H1648		0.23	0.318	0.273	0.283							0.643	0.756	0.583	0.614				
NCI-H647	0.374	0.502	0.375	0.342	0.188	1.21	0.902	0.836	0.792	0.283	0.674	0.549	0.392	0.205	0.145	0.957	0.943	1.19	1.11
NCI-H322M	0.451	0.483	0.465	0.441	0.414		1.25	1.19	1.2	0.962	0.558	0.559	0.545	0.547	0.455	0.796	1.03	0.515	0.889
NCI-H1666	0.693	0.672	0.642	0.756	0.667	0.779	0.9	0.595	0.647	0.416	0.795	0.923	0.858	0.7	0.657	0.851	0.833	1.08	1.03
NCI-H2342	0.501	0.529	0.521	0.491	0.53						0.457	0.447	0.516	0.506	0.549				
ChaGo-K-1	1.05	0.967	0.967	0.873	0.917	1.17	0.955	1.21	0.967	0.985	0.939	0.902	0.922	0.858	0.904				
CAL-12T	0.285	0.568	0.608	0.484	0.405		0.964	0.945	1.04	0.967	0.645	0.618	0.628	0.657	0.699		0.713	1.24	1.01
LOU-NH91	0.585	0.566	0.552	0.557	0.572	0.487	0.514	0.565	0.543	0.456	0.77	0.784	0.836	0.79	0.75	0.752	0.747	0.787	0.775
NCI-H1975	0.575	0.608	0.564	0.606	0.485	0.462	0.418	0.384	0.413	0.298		0.778	0.85	0.679	0.78	0.725	0.894	0.611	0.964
LC-2-ad	0.474	0.494	0.512	0.537	0.473	1.17	0.984	1.02	0.945	0.945	0.842	0.85	0.873	0.837	0.675	0.911	0.98	0.834	1.11
ABC-1	0.639	0.777	0.707	0.65	0.65	0.351	0.274	0.383	0.315	0.256	0.712	0.761	0.761	0.762	0.763	1.17	1.15	1.07	1.03
NCI-H2405	0.442	0.576	0.518	0.5	0.508	1.07	0.976	1.01	0.715	0.954	0.821	0.79	0.828	0.759	0.75	0.913	1.07		0.933
IA-LM						0.794	0.988	1.04	0.742	0.945						0.686	0.71	0.844	0.686
